Measured values reported in US9012439B2, “Use of electrophilic compounds for inducing platelet production or maintaining platelet function” (University of Rochester, priority 2007, dated 2015).
“Also recorded” adds a separate entry of the source.

Experiments:
C57BL/6 mice = assay: Circulating platelet number in unirradiated mice; type: in vivo, mouse (C57BL/6); conditions: unirradiated mice, 1 mg/kg IV for 4 consecutive days
Method: Seven or 8-week-old male C57BL/6 mice (Jackson Laboratories) were either exposed to 5 Gy cesium (Cs^137) total body irradiation (TBI) using a Model 8114 6000 Curie Shepherd Cs^137 irradiator (approximately 3200 Curie sealed Cs^137 source) with a dose rate of […] or left unexposed. Mice (n=4) received intravenous injections of vehicle (8% DMSO) or 15d-PGJ2 (1 mg/kg) or CDDO-Me (250 μg/kg) for 4 consecutive days from day 1 (days 1, 2, 3 and 4 post-irradiation). Blood was obtained from the aorta or the orbital sinus. Platelets were counted prior to radiation exposure and after radiation exposure on day 10, day 22, and day 31 in Example 7, or days 4, 10, 16, and 21 in Example 9 using the Heska® CBC-Diff™ Veterinary Analyzer (Fort Collins, Colo.). Data are expressed as average platelet counts from two separate experiments. For the unirradiated mice, platelets were counted on day 4, day 10, and day 15 in Example 7 or on the same days in Example 9.

Meg-01-derived platelets = assay: Collagen-induced shape change of Meg-01-derived platelets; type: cell-based, human; conditions: platelets from Meg-01 cells treated 10 μM for 24 h; collagen 10 μg/mL, 15 min
Method: (§1) Platelets were isolated from the Meg-01 cells and human blood as described above. Both normal human platelets and Meg-01-derived platelets were stained with annexin V-FITC then treated with 10 μg/ml of collagen for 15 min. Cells were analyzed for collagen-induced annexin V binding and change in size and shape by flow cytometry. Platelets were isolated from primary human megakaryocytes and primary mouse megakaryocytes as described above. Primary human platelets were stained with CD41-FITC and primary mouse platelets were stained with CD61-PE then treated with 10 μg/mL of collagen. Cells were analyzed for collagen-induced CD61/CD41 upregulation and change in size and shape using flow cytometry.

Meg-01 cells [1] = assay: Platelet production from Meg-01 cells (flow cytometry); type: cell-based, human
Method: Meg-01 and M07e cells were purchased from the American Type Culture Collection (Rockville, Md.) and Dami cells were a generous gift from Dr. Patricia J. Simpson-Haidaris (University of Rochester). All cells were cultured in RPMI-1640 tissue culture medium (Invitrogen) supplemented with 5% fetal bovine serum (FBS; Invitrogen), 10 mM HEPES (N-2-hydroxyethylpiperazine-N′-2-ethanesulfonic acid; Sigma), 2 mM L-glutamine (Invitrogen), 4.5 g/L glucose (Invitrogen), and 50 μg/mL gentamicin (Invitrogen). M07e cells were also supplemented with 100 ng/mL of granulocyte monocyte-colony stimulating factor (GM-CSF, R&D Systems). All treatments were performed in normal growth media. Dimethyl sulfoxide (DMSO) was used as a vehicle (control) in the experiments described below.
Platelets were isolated from megakaryocytes by centrifugation at 150 xg for 10 min. Supernatants underwent sequential centrifugation (500 xg for 10 min and 1000×g for 10 min). The remaining platelet pellet was fixed then permeabilized with a CD61 or CD41 antibody. 7-AAD (BD Pharmingen) was added for 10 min before analyzing the cells by flow cytometry. Platelets were identified using three well-described parameters (Patel et al., “The Biogenesis of Platelets from Megakaryocyte Proplatelets,” J Clin Invest 115:3348-3354 (2005); Breton-Gorius et al., “Expression of Platelet Proteins During the In Vitro and In Vivo Differentiation of Megakaryocytes and Morphological Aspects of Their Maturation,” Semin Hematol 23:43-67 (1986); Ogura et al., “Establishment of a Novel Human Megakaryoblastic Leukemia Cell Line, MEG-01, With Positive Philadelphia Chromosome,” Blood 66:1384-1392 (1985) and Franks et al., “A Fluorescence Microscopy Method for Quantifying Levels of Prostaglandin Endoperoxide H Synthase-1 and CD-41 in MEG-01 Cells,” Biol Proced Online 3:54-63 (2001), each of which is hereby incorporated by reference in its entirety), size (using normal human platelets as a control), presence of CD61 or CD41 and lack of DNA as determined by the absence of 7-AAD staining Ten thousand platelet events were collected and platelets were quantified by rate (platelet events/second) (Chung et al., “Platelet Activation in Acute, Decompensated Congestive Heart Failure,” Thromb Res 120:709-713 (2007), which is hereby incorporated by reference in its entirety.
A 19 by target sequence was selected to knock down PPARγ. PPARγ was cloned downstream of the RNA polymerase III U6 promoter and subcloned into a FG12 lentiviral vector which expresses green fluorescent protein (GFP) under the Ubiquitin C promoter. HEK 293 cells expressing this siRNA PPARγ had reduced PPARγ protein levels. To make the lentivirus, HEK 293 cells were co-transfected with 3 plasmids: the envelope vector (CMV-VSVG), the transfer vector (FG12-shRNAPPAR), and the packaging construct (pCMVΔ89.2 (gag/pol proteins)). Viral supernatants were collected every 8 h for 2 days and concentrated by ultracentrifugation at 50,000×g for 2 h at 4° C. using a Beckman SW 28 rotor. Viral titers were determined by infection of HeLa cells with serial dilutions of the viral stocks. Meg-01 cells were infected at a multiplicity of infection (MOI) of 20. After 48 h, approximately 56% of the PPARγ siRNA cells were transduced as determined by flow cytometry. The GFP positive (+) cells were then sorted by FACS and grown in RPMI with 5% FBS.

Meg-01 cells [2] = assay: DNA content analysis of Meg-01 cells; type: cell-based, human; conditions: 10 μM
Method: Cells were fixed in 95% ethanol, treated with RNAse (Sigma) followed by 20 μg/mL propidium iodide (Sigma) to stain DNA, and analyzed by flow cytometry.

Meg-01 cells [3] = assay: Reactive oxygen species production in Meg-01 cells (carboxy-H2DCFDA, MitoSOX Red); type: cell-based, human; conditions: for percentage of Meg-01 cells that produce mitochondrial superoxide (MitoSOX Red): 10 μM
Method: Ten μM carboxy-H2DCFDA was added to cells for 20 min at RT. The cells were washed and immediately analyzed by flow cytometry. Five μM of MitoSOX Red dye in HBSS containing Mg^2+ and Ca^2+ was added to the cells for 15 min at 37° C. The cells were washed in HBSS and analyzed by flow cytometry.

[4] = tested on: mouse bone marrow culture-derived platelets; assay: Function of mouse bone marrow culture-derived platelets (collagen response, spreading on fibrinogen); type: cell-based, mouse (C57BL/6)
Method: as §1
Coverslips were coated with 100 μg/mL of fibrinogen for 1 h and blocked with 0.5 mg/mL BSA for 1 h. Platelets were added to the fibrinogen-coated coverslips in Tyrode's buffer and fixed with glutaraldehyde, post-fixed with 1% osmium tetroxide, and dehydrated. Platelets were then coated with a gold/palladium film. Images were acquired using the Zeiss-Leo 982 FE-SEM (scanning electron microscope).

## CCCCCC=CC=C1C(=O)C=C[C@@H]1CC=CCCCC(=O)O [15d-PGJ2, 15-deoxy-Δ^12,14 prostaglandin J2]
C57BL/6 mice
  platelet numbers compared with vehicle: higher platelet numbers
Meg-01-derived platelets
  platelets that decreased their size and increased their granularity in response to collagen: 68%
Meg-01 cells [1]; Meg-01 cells infected with PPARγ siRNA lentivirus, 15d-PGJ2 24 h
  platelet-enhancing effect after PPARγ protein knock-down: failed to attenuate the platelet-enhancing effects of 15d-PGJ2
Meg-01 cells [1]; Meg-01 cells, 10 μM, 24 h
  platelet production: increased platelet production; also recorded: enhanced Meg-01 platelet production
Meg-01 cells [1]; Meg-01 cells, increasing concentrations, 24 h
  platelet production with increasing concentrations: dose-dependent increase in platelet production
Meg-01 cells [2]; 24 h and 48 h
  DNA content: unchanged
Meg-01 cells [2]; 72 h
  DNA content: increased DNA content
Meg-01 cells [3]; 1 h
  percentage of Meg-01 cells that produce mitochondrial superoxide (MitoSOX Red): 43%
  percentage of Meg-01 cells that express ROS (carboxy-H2DCFDA): 91%
Meg-01 cells [3]; 6 h
  percentage of Meg-01 cells that produce mitochondrial superoxide (MitoSOX Red): 31%
  percentage of Meg-01 cells that express ROS (carboxy-H2DCFDA): 97%
[4]; mouse bone marrow culture-derived platelets, fibrinogen coated slide
  platelet spreading on fibrinogen: spread in response to fibrinogen
[4]; platelets from mouse bone marrow cultures treated with 15d-PGJ2, collagen 10 μg/mL, 15 min
  geometric mean fluorescence intensity of surface CD41, after collagen treatment: 20
[4]; platelets from mouse bone marrow cultures treated with 15d-PGJ2, no collagen
  geometric mean fluorescence intensity of surface CD41, before collagen: 9
